The results in this text go back to US20150074835A1, “TRANSGENIC MOUSE EXPRESSING HUMAN LIPOPROTEIN (A) WITH DISABLED VITAMIN C GENE AND ITS USE AS A DISEASE TREATMENT MODEL” (priority 2013, published 2015).

The structures appear in SMILES notation.

The experiment concerns Lpa+Gulo (−/−) mouse. In words: Lipoprotein-cholesterol, apo(a) particle and apoB-100 particle modulation (SPIFE / IFE of sera) under ascorbic acid supplementation. It is filed as in vivo. Particulars: 30 mg/L, 60 mg/L or 150 mg/L ascorbic acid in drinking water in addition to 500 ppm vitamin C in food (full supplementation); FIG. 6-8. The procedure:
SPIFE Cholesterol Profiling (FIG. 2): The presence of complete Lp(a) lipoprotein particles in the Lp(a)+GULO(−/−) transgenic mouse serum was confirmed using the electrophoresis method with Helena (Beaumont, Tex.) SPIFE Cholesterol Profiling and Immunofixation electrophoresis (IFE). Immunofixation Electrophoresis (IFE) using the mouse sera was conducted on individual apo(a) (FIG. 3) containing particles and human apoB-100 containing particles (FIG. 4) as well, using human specific apo(a) and apoB-100 antibodies at Health Diagnostic Laboratory, Inc. (Richmond, Va.). The bands represent apo(a) and apoB-100 protein respectively in transgenic mouse and visualization of the same in serum derived from female and male mouse. Lipoprotein-cholesterol, Apo(a) particle, and ApoB-100 particle Modulation (FIG. 6, FIG. 7, and FIG. 8): The analysis was conducted on mouse sera from the Lpa+Gulo (−/−)mouse supplemented with either 30 mg/L, 60 mg/L or 150 mg/L of ascorbic acid provided in drinking water in addition to 500 ppm vitamin C provided in food (full supplementation). […] Sample order in FIGS. 6-8 correspond to the following key, with 30 vc referring to 30 mg/L Vitamin C group, 60 vc referring to 60 mg/L Vitamin C group, and sc referring to fully supplemented (150 mg/L Vitamin C+500 ppm Vitamin C in food) control group. The first three wells of each row were not used.

Take `O=C1O[C@H]([C@@H](O)CO)C(O)=C1O` [ascorbate, ascorbic acid]: the “modulation of the whole spectrum of lipoprotein cholesterols and/or lipoprotein particles in mouse sera” value was “could be modulated”.
